{"source": "patent US20220280507A1", "about": "“USES OF 5-METHYLTETRAHYDROFOLATE AND ITS COMPOSITION” (Lianyungang Jinkang Hexin Pharmaceutical Co., Ltd., priority 2019, published 2022)", "key": {"[1]": {"tested_on": "methanol metabolism in rats", "settings": "n=5", "method": "Experiment 10 Effects of Drinking and 5-Methyltetrahydrofolate on the Formate in the Urine of SD Rats\n(§1) In order to study the effects of 5-methyltetrahydrofolate and ethanol on methanol metabolism in rats, SPF-grade female SD rats, fasted overnight, were divided into 4 groups: (1) ethanol group, with intragastric administration of ethanol at a dose of 1 g/kg respectively at 1, 2, 3 h, n=7; (2) control group, with intragastric administration of glucose at a dose of 1.6 g/kg (equivalent to alcohol calories) respectively at 1, 2, and 3 h, n=5; (3) 5-methyltetrahydrofolate group, with intragastric administration of 5-methyltetrahydrofolate calcium at a dose of 4 mg/kg at 0 h, followed by glucose at a dose of 1.6 g/kg (equivalent to alcohol calories) respectively at 1, 2, and 3 h, n=5; (4) 5-methyltetrahydrofolate alcohol group, with intragastric administration of 5-methyltetrahydrofolate calcium at a dose of 4 mg/kg at 0 h, followed by ethanol at a dose of 1 g/kg respectively at 1, 2, and 3 h, n=5.\nFood grade alcohol was used, with a methanol content of less than 5 mg/L. Urine was collected, from 0 to 24 h, into a test tube containing 0.1 mL of thioethanol and stored at −70° C. The urine samples were divided into three parts, of which gas chromatographic method, fluorescence method and HPLC-DNPH derivative method were used to detect ethanol and methanol contents (see Table 16), formate content, and formaldehyde content (see Table 17) in urine, respectively.\nThe method for detecting formate is as follows: 0.1 mL of urine was mixed with 0.1 mL of 10 mmol/L NAD+, 0.1 mL of potassium phosphate buffer (pH 7.4, 20 mmol/L) and 50 μL of formate dehydrogenase, then 0.1 mL of diaphorase (4 U/mL), 50 μL of resazurin solution (0.2 mg/ml) and 0.5 ml of phosphate buffer (pH 6.00, 200 mmol/L) were added. The mixture was incubated at 37° C. for 5 min, then immersed in boiling water for 3 min, and then cooled to room temperature. Fluorescence spectrophotometry was used to determine the content of formate in the mixture, with an emission wavelength of 590 nm and an absorption wavelength of 565 nm.\nThe method for detecting formaldehyde is as follows: 0.1 ml of urine was taken and filtered through filtering membrane, 0.05 ml of 2,4-dinitrophenylhydrazine (DNPH, 0.1 g/L) and 0.25 ml of trifluoroacetic acid were added to it. The sample was vortexed for 30 s, centrifuged, […]. HPLC was used for analysis, with a detection wavelength of 355 nm, column temperature of 35° C., and mobile phase of 65% acetonitrile."}, "brain tissue of rats": {"tested_on": "brain tissue of rats", "settings": "n=5", "method": "Experiment 11 Effects of Drinking and 5-Methyltetrahydrofolate on the Concentrations of Formaldehyde and Formate in the Brain of Rats\nThe concentrations of formaldehyde and formate, as well as those of serotonin and dopamine in brain tissue of rats were detected at this time. SPF-grade female SD rats, fasted overnight, were divided into 4 groups.\nas §1, with “(1) Ethanol” for “In order to study the effects of 5-methyltetrahydrofolate and ethanol on methanol metabolism in rats, SPF-grade female SD rats, fasted overnight, were divided into 4 groups: (1) ethanol”, “(1) Ethanol group, with” for “groups: (1) ethanol group, with”, “3 h, n=5; (2) control” for “3 h, n=7; (2) control”\nGas chromatography was used to detect methanol and ethanol concentrations in blood of rats, and HPLC was used to detect formaldehyde concentration in brain tissue. 0.1 g of brain tissue was taken and 0.5 ml of SDN lysate was added to make homogenate, then 0.5 ml of trifluoroacetic acid was added. The sample was centrifuged at 4° C., 0.4 ml of supernatant was collected, 0.1 ml DNPH (1 g/L) was added, mixed and incubated in 60° C. water bath for 30 min, centrifuged at 4° C., and supernatant was collected to detect formaldehyde concentration. Fluorescence spectrometry was used to detect formate concentration in brain. Serotonin and dopamine enzyme-linked immunosorbent reagent was used to detect neurotransmitters in brain in strict accordance with the instructions."}, "[2]": {"settings": "5-methyltetrahydrofolate calcium 4 mg/kg ig at 0 h + ethanol 1 g/kg at 1, 2, 3 h"}, "[3]": {"settings": "5-methyltetrahydrofolate calcium 4 mg/kg ig at 0 h + glucose 1.6 g/kg at 1, 2, 3 h"}, "[4]": {"settings": "5-methyltetrahydrofolate calcium 4 mg/kg ig at 0 h + ethanol 1 g/kg at 1, 2, 3 h, 24 h after drinking"}, "[5]": {"settings": "5-methyltetrahydrofolate calcium 4 mg/kg ig at 0 h + glucose 1.6 g/kg at 1, 2, 3 h, 24 h"}}, "note": "Like-named read-outs stand apart in the source and are kept apart here."}
{"smiles": "CN1c2c([nH]c(N)nc2=O)NCC1CNc1ccc(C(=O)N[C@@H](CCC(=O)O)C(=O)O)cc1", "note": "(stereo partly drawn) [5-methyltetrahydrofolate, N-[4-[[(2-amino-1,4,5,6,7,8-hexahydro-4-oxo-5-methyl-(6S), -(6R), and (6R,S)-pteridyl)methyl)amino)toluoyl-glutamic acid]", "values": [{"measurement": "Ethanol content in urine, 3 h", "setting": "[1]; [2]", "value": "11.6 ± 1.3", "unit": "mg/L"}, {"measurement": "Formaldehyde content in urine, 3 h", "setting": "[1]; [2]", "value": "0.8 ± 0.4", "unit": "mg/L"}, {"measurement": "Formate content in urine, 3 h", "setting": "[1]; [2]", "value": "241 ± 42", "unit": "mg/L"}, {"measurement": "Methanol content in urine, 3 h", "setting": "[1]; [2]", "value": "1.6 ± 0.3", "unit": "mg/L"}, {"measurement": "Ethanol content in urine, 4 h", "setting": "[1]; [2]", "value": "25.2 ± 2.2", "unit": "mg/L"}, {"measurement": "Formaldehyde content in urine, 4 h", "setting": "[1]; [2]", "value": "1.7 ± 0.6", "unit": "mg/L"}, {"measurement": "Formate content in urine, 4 h", "setting": "[1]; [2]", "value": "255 ± 30", "unit": "mg/L"}, {"measurement": "Methanol content in urine, 4 h", "setting": "[1]; [2]", "value": "2.5 ± 0.4", "unit": "mg/L"}, {"measurement": "Ethanol content in urine, 8 h", "setting": "[1]; [2]", "value": "24.1 ± 2.3", "unit": "mg/L"}, {"measurement": "Formaldehyde content in urine, 8 h", "setting": "[1]; [2]", "value": "2.9 ± 1.2", "unit": "mg/L"}, {"measurement": "Formate content in urine, 8 h", "setting": "[1]; [2]", "value": "345 ± 43", "unit": "mg/L"}, {"measurement": "Methanol content in urine, 8 h", "setting": "[1]; [2]", "value": "6.4 ± 1.0", "unit": "mg/L"}, {"measurement": "Ethanol content in urine, 12 h", "setting": "[1]; [2]", "value": "11.8 ± 2.0", "unit": "mg/L"}, {"measurement": "Formaldehyde content in urine, 12 h", "setting": "[1]; [2]", "value": "3.1 ± 1.0", "unit": "mg/L"}, {"measurement": "Formate content in urine, 12 h", "setting": "[1]; [2]", "value": "351 ± 45", "unit": "mg/L"}, {"measurement": "Methanol content in urine, 12 h", "setting": "[1]; [2]", "value": "4.4 ± 0.9", "unit": "mg/L"}, {"measurement": "Ethanol content in urine, 16 h", "setting": "[1]; [2]", "value": "4.3 ± 0.8", "unit": "mg/L"}, {"measurement": "Formaldehyde content in urine, 16 h", "setting": "[1]; [2]", "value": "1.9 ± 0.9", "unit": "mg/L"}, {"measurement": "Formate content in urine, 16 h", "setting": "[1]; [2]", "value": "247 ± 48", "unit": "mg/L"}, {"measurement": "Methanol content in urine, 16 h", "setting": "[1]; [2]", "value": "3.7 ± 0.9", "unit": "mg/L"}, {"measurement": "Ethanol content in urine, 24 h", "setting": "[1]; [2]", "value": "1.7 ± 0.7", "unit": "mg/L"}, {"measurement": "Formaldehyde content in urine, 24 h", "setting": "[1]; [2]", "value": "1.0 ± 0.5", "unit": "mg/L"}, {"measurement": "Formate content in urine, 24 h", "setting": "[1]; [2]", "value": "211 ± 39", "unit": "mg/L"}, {"measurement": "Methanol content in urine, 24 h", "setting": "[1]; [2]", "value": "1.9 ± 0.7", "unit": "mg/L"}, {"measurement": "Ethanol content in urine, 3 h", "setting": "[1]; [3]", "value": "0.6 ± 0.4", "unit": "mg/L"}, {"measurement": "Formaldehyde content in urine, 3 h", "setting": "[1]; [3]", "value": "0.8 ± 0.4", "unit": "mg/L"}, {"measurement": "Formate content in urine, 3 h", "setting": "[1]; [3]", "value": "215 ± 33", "unit": "mg/L"}, {"measurement": "Methanol content in urine, 3 h", "setting": "[1]; [3]", "value": "1.0 ± 0.3", "unit": "mg/L"}, {"measurement": "Ethanol content in urine, 4 h", "setting": "[1]; [3]", "value": "0.8 ± 0.5", "unit": "mg/L"}, {"measurement": "Formaldehyde content in urine, 4 h", "setting": "[1]; [3]", "value": "0.8 ± 0.5", "unit": "mg/L"}, {"measurement": "Formate content in urine, 4 h", "setting": "[1]; [3]", "value": "237 ± 42", "unit": "mg/L"}, {"measurement": "Methanol content in urine, 4 h", "setting": "[1]; [3]", "value": "1.1 ± 0.4", "unit": "mg/L"}, {"measurement": "Ethanol content in urine, 8 h", "setting": "[1]; [3]", "value": "1.5 ± 0.4", "unit": "mg/L"}, {"measurement": "Formaldehyde content in urine, 8 h", "setting": "[1]; [3]", "value": "0.7 ± 0.4", "unit": "mg/L"}, {"measurement": "Formate content in urine, 8 h", "setting": "[1]; [3]", "value": "198 ± 36", "unit": "mg/L"}, {"measurement": "Methanol content in urine, 8 h", "setting": "[1]; [3]", "value": "1.2 ± 0.4", "unit": "mg/L"}, {"measurement": "Ethanol content in urine, 12 h", "setting": "[1]; [3]", "value": "1.5 ± 0.3", "unit": "mg/L"}, {"measurement": "Formaldehyde content in urine, 12 h", "setting": "[1]; [3]", "value": "0.8 ± 0.3", "unit": "mg/L"}, {"measurement": "Formate content in urine, 12 h", "setting": "[1]; [3]", "value": "187 ± 32", "unit": "mg/L"}, {"measurement": "Methanol content in urine, 12 h", "setting": "[1]; [3]", "value": "1.1 ± 0.4", "unit": "mg/L"}, {"measurement": "Ethanol content in urine, 16 h", "setting": "[1]; [3]", "value": "1.7 ± 0.5", "unit": "mg/L"}, {"measurement": "Formaldehyde content in urine, 16 h", "setting": "[1]; [3]", "value": "0.8 ± 0.5", "unit": "mg/L"}, {"measurement": "Formate content in urine, 16 h", "setting": "[1]; [3]", "value": "190 ± 41", "unit": "mg/L"}, {"measurement": "Methanol content in urine, 16 h", "setting": "[1]; [3]", "value": "1.3 ± 0.5", "unit": "mg/L"}, {"measurement": "Ethanol content in urine, 24 h", "setting": "[1]; [3]", "value": "1.6 ± 0.4", "unit": "mg/L"}, {"measurement": "Formaldehyde content in urine, 24 h", "setting": "[1]; [3]", "value": "0.8 ± 0.4", "unit": "mg/L"}, {"measurement": "Formate content in urine, 24 h", "setting": "[1]; [3]", "value": "188 ± 36", "unit": "mg/L"}, {"measurement": "Methanol content in urine, 24 h", "setting": "[1]; [3]", "value": "1.1 ± 0.3", "unit": "mg/L"}, {"measurement": "5-hydroxytryptamine in brain tissue", "setting": "brain tissue of rats; [4]", "value": "0.10 ± 0.1", "unit": "µg/L"}, {"measurement": "Dopamine in brain tissue", "setting": "brain tissue of rats; [4]", "value": "27 ± 4", "unit": "ng/L"}, {"measurement": "Formaldehyde in brain tissue", "setting": "brain tissue of rats; [4]", "value": "1.14 ± 0.31", "unit": "mg/L"}, {"measurement": "Formate in brain tissue", "setting": "brain tissue of rats; [4]", "value": "5.5 ± 0.4", "unit": "mg/L"}, {"measurement": "5-hydroxytryptamine in brain tissue", "setting": "brain tissue of rats; [5]", "value": "0.12 ± 0.04", "unit": "µg/L"}, {"measurement": "Dopamine in brain tissue", "setting": "brain tissue of rats; [5]", "value": "35 ± 3", "unit": "ng/L"}, {"measurement": "Formaldehyde in brain tissue", "setting": "brain tissue of rats; [5]", "value": "0.39 ± 0.11", "unit": "mg/L"}, {"measurement": "Formate in brain tissue", "setting": "brain tissue of rats; [5]", "value": "2.1 ± 0.2", "unit": "mg/L"}]}
